{"source": "ChEMBL document CHEMBL4321837", "about": "“Discovery of Potent and Orally Effective Dual Janus Kinase 2/FLT3 Inhibitors for the Treatment of Acute Myelogenous Leukemia and Myeloproliferative Neoplasms” (J Med Chem, 2019)", "key": {"[1]": {"target": "Tyrosine-protein kinase JAK1 (Homo sapiens, UniProt P23458)", "sequence (P23458 whole entry)": "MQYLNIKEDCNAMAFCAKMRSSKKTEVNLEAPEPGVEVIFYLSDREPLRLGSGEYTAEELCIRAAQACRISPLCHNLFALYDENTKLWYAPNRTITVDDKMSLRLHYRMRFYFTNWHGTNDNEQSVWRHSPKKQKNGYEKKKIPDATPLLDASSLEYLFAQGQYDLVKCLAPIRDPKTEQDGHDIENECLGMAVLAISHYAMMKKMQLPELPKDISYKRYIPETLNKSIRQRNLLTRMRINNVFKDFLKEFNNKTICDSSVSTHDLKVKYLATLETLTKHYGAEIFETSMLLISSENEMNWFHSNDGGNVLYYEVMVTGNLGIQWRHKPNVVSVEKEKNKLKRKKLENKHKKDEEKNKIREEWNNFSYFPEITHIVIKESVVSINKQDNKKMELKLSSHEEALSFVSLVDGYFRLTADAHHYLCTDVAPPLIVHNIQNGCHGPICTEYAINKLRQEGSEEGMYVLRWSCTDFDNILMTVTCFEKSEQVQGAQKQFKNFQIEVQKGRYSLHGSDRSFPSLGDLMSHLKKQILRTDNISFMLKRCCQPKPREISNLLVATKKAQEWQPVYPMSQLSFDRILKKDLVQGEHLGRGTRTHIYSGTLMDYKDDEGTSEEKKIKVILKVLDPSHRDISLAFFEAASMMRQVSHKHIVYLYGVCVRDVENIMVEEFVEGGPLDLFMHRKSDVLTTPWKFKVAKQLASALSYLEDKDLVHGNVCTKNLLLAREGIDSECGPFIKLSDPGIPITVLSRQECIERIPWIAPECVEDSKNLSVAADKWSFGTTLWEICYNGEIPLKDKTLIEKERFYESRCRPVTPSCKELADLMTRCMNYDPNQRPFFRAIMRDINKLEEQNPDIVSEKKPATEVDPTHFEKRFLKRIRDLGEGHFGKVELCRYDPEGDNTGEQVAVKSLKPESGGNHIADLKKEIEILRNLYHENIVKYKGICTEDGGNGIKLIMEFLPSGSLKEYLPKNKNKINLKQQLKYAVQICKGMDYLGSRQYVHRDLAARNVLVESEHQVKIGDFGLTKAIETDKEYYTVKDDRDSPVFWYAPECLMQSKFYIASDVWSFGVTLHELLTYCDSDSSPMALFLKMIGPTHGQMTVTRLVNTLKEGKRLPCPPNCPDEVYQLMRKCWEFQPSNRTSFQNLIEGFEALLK", "experiment": "Inhibition of JAK1 in human PBMC cells assessed as reduction in IL-6-induced STAT3 phosphorylation by flow cytometry", "type": "cell-based"}, "MV4-11 [2]": {"test_system": "MV4-11", "experiment": "Inhibition of JAK2/FLT3 ITD mutant in human MV4-11 cells assessed as reduction in FLT3 phosphorylation after 2 hrs by Western blot analysis", "type": "cell-based"}, "MV4-11 [3]": {"test_system": "MV4-11", "experiment": "Induction of cell cycle arrest in human MV4-11 cells assessed as accumulation at G0/G1 phase at 0.1 uM after 24 hrs by propidium iodide staining based flow cytometry analysis (reference value: 54.49%)", "type": "functional"}, "MV4-11 [4]": {"test_system": "MV4-11", "experiment": "Induction of apoptosis in human MV4-11 cells assessed as late apoptotic cells at 0.4 uM after 24 hrs by Annexin V FITC/PI staining based flow cytometry analysis (reference value: 1.38%)", "type": "functional"}, "[5]": {"experiment": "Toxicity in NOD/SCID mouse xenografted with human SET2 cells overexpressing JAK2 V617F mutant assessed as animal survival at 30 to 60 mg/kg, po qd for 18 days", "type": "organism-based", "conditions": "in vivo"}}, "note": "pIC50: −log10 of the molar value.", "data": [{"compound": "Cc1cnc(Nc2ccc(N3CCC(N(C)CCO)CC3)c(F)c2)nc1-c1cnn(C(C)C)c1", "values": [{"measurement": "pIC50", "setting": "[1]", "value": 7.03}, {"measurement": "inhibition", "setting": "MV4-11 [2]", "value": "Dose-dependent effect"}, {"measurement": "Activity", "setting": "MV4-11 [3]", "value": 84.71, "unit": "%"}, {"measurement": "Activity", "setting": "MV4-11 [4]", "value": 26.5, "unit": "%"}, {"measurement": "survival at 432 h", "setting": "[5]", "value": 100, "unit": "%"}]}]}
